# Measurements reported in patent publication US20210323981A1, “FREE AMINO COMPOUNDS FOR THE TREATMENT AND PROPHYLAXIS OF BACTERIAL INFECTION” (Hoffmann-La Roche Inc., priority 2018, published 2021).
# Assays:
# Type in all cases: cell-based
# [1] = test system: S. aureus (ATCC29213); assay: 50% growth inhibitory concentration (IC50) determination assay, S. aureus; details: Staphylococcus aureus, growth inhibition, Iso-Sensitest broth, OD 600 nm over 16 h, <0.098 μM = detection limit
# Experimental: (§1) The in vitro antimicrobial activity of the compounds against S. aureus (ATCC29213), K. pneumoniae (ATCC10031), and A. baumannii (ATCC17978), was determined according to the following procedure: The assay used a 10-points Iso-Sensitest broth medium to measure quantitatively the in vitro activity of the compounds against S. aureus ATCC29213, K. pneumoniae ATCC 10031, and A. baumannii ATCC17978. Stock compounds in DMSO were serially two-fold diluted (range from 50 to 0.097 μM final concentration) in 384 wells microtiter plates and inoculated with 49 μL the bacterial suspension in Iso-Sensitest broth medium to have a final cell concentration of ˜5×10^5 CFU/mL in a final volume/well of 50 μL/well. Microtiter plates were incubated at 35±2° C. Bacterial cell growth was determined with the measurement of optical density at k=600 nm each 20 minutes over a time course of 16 h. Growth inhibition was calculated during the logarithmic growth of the bacterial cells with determination of the concentration inhibiting 50% (IC50) of the growth.
# [2] = test system: K. pneumoniae (ATCC10031); assay: 50% growth inhibitory concentration (IC50) determination assay, K. pneumoniae; details: Klebsiella pneumoniae, growth inhibition, Iso-Sensitest broth, OD 600 nm over 16 h, <0.098 μM = detection limit
# Experimental: as §1
# [3] = test system: A. baumannii (ATCC17978); assay: 50% growth inhibitory concentration (IC50) determination assay, A. baumannii; details: Acinetobacter baumannii, growth inhibition, Iso-Sensitest broth, OD 600 nm over 16 h, <0.098 = detection limit
# Experimental: as §1
compound,measurement,setting,value
"CNc1cc(F)c(Cl)c2c1[nH]c1ncc(-c3cnc4c(c3)c(=O)c(C(=O)O)cn4C)c(N3CC[C@]4(C[C@@H]4N)C3)c12 [Example 4.02, 6-[4-[(2S,3S)-2-amino-5-azaspiro[2.4]heptan-5-yl]-5-chloro-6-fluoro-8-(methylamino)-9H-pyrido[2,3-b]indol-3-yl]-1-methyl-4-oxo-1,8-naphthyridine-3-carboxylic acid]",IC50,[1],< 0.098 µM
same,IC50,[2],< 0.098 µM
same,IC50,[3],0.0973 µM
"CNc1cc(F)c(Cl)c2c1[nH]c1ncc(-c3cnc4c(c3)c(=O)c(C(=O)O)cn4C)c(N3CC[C@@]4(C[C@@H]4N)C3)c12 [Example 4.03, 6-[4-[(2S,3R)-2-amino-5-azaspiro[2.4]heptan-5-yl]-5-chloro-6-fluoro-8-(methylamino)-9H-pyrido[2,3-b]indol-3-yl]-1-methyl-4-oxo-1,8-naphthyridine-3-carboxylic acid]",IC50,[1],< 0.098 µM
same,IC50,[2],< 0.098 µM
same,IC50,[3],0.0553 µM
"CNc1cc(F)c(Cl)c2c1[nH]c1ncc(-c3cnc4c(c3)c(=O)c(C(=O)O)cn4C)c(N3CC[C@]4(C[C@H]4N)C3)c12 [Example 4.04, 6-[4-[(2R,3S)-2-amino-5-azaspiro[2.4]heptan-5-yl]-5-chloro-6-fluoro-8-(methylamino)-9H-pyrido[2,3-b]indol-3-yl]-1-methyl-4-oxo-1,8-naphthyridine-3-carboxylic acid]",IC50,[1],< 0.098 µM
same,IC50,[2],< 0.098 µM
same,IC50,[3],0.0793 µM
"CNc1cc(F)c(C#N)c2c1[nH]c1ncc(-c3cnc4c(c3)c(=O)c(C(=O)O)cn4C)c(N3CC[C@@]4(C[C@@H]4N)C3)c12 [Example 5.01, 6-[4-[(2S,3R)-2-Amino-5-azaspiro[2.4]heptan-5-yl]-5-cyano-6-fluoro-8-(methylamino)-9H-pyrido[2,3-b]indol-3-yl]-1-methyl-4-oxo-1,8-naphthyridine-3-carboxylic acid]",IC50,[1],< 0.098 µM
same,IC50,[2],< 0.098 µM
same,IC50,[3],0.477 µM
"CNc1cc(F)c(C#N)c2c1[nH]c1ncc(-c3cnc4c(c3)c(=O)c(C(=O)O)cn4C)c(N3CC[C@]4(C[C@H]4N)C3)c12 [Example 5.02, 6-[4-[(2R,3S)-2-amino-5-azaspiro[2.4]heptan-5-yl]-5-cyano-6-fluoro-8-(methylamino)-9H-pyrido[2,3-b]indol-3-yl]-1-methyl-4-oxo-1,8-naphthyridine-3-carboxylic acid]",IC50,[1],< 0.098 µM
same,IC50,[2],< 0.098 µM
same,IC50,[3],0.417 µM
"CNc1cc(F)c(C#N)c2c1[nH]c1ncc(-c3cnc4c(c3)c(=O)c(C(=O)O)cn4C)c(N3CC[C@]4(C[C@@H]4N)C3)c12 [Example 5.03, 6-[4-[(2S,3S)-2-amino-5-azaspiro[2.4]heptan-5-yl]-5-cyano-6-fluoro-8-(methylamino)-9H-pyrido[2,3-b]indol-3-yl]-1-methyl-4-oxo-1,8-naphthyridine-3-carboxylic acid]",IC50,[1],< 0.098 µM
same,IC50,[2],< 0.098 µM
same,IC50,[3],0.497 µM
